The text below walks through data of US10689378B2, “Triazolopyridine compounds and uses thereof” (Novartis AG, priority 2016, dated 2020).

Experiment [1] concerns the target T1, EED (1-441)-His protein (Homo sapiens, UniProt O75530).
T1 construct: 30 nM EED (1-441)-His protein
The experiment in a line: EED-H3K27Me3 peptide competition binding assay by AlphaScreen. Conditions: read-out: (a) IC50, EED Alphascreen binding Qualified. The gist of the method: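 Serially diluted compound (12 points, 3-fold) incubated 20 min with 30 nM EED(1-441)-His and 15 nM biotin-H3K27Me3(19-33) peptide in 25 mM HEPES pH 8, 0.02% Tween-20, 0.5% BSA. Ni-chelate acceptor/streptavidin donor beads (10 μg/mL each) added, 1 h rt dark; 615 nm emission normalized to controls, dose-response fit for IC50.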

Experiment [2] concerns the target wild type PRC2 (wtPRC2) complex (Homo sapiens, UniProt O75530). The experiment in a line: EED LC-MS assay (SAH production by PRC2). It counts as biochemical. As to conditions: read-out: (b) IC50, EED LC-MS Qualified. The gist of the method: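 Pentameric PRC2 (EZH2, SUZ12, EED, Rbap48, AEBP), 12 nM final, preincubated 20 min with compound and SAM, then 1.5 μM biotinylated H3K27me0 peptide, 1 μM SAM, pH 8.0, 120 min at rt. SAH quantified by LC-MS/MS with d4-SAH; control-normalized activity fitted for IC50.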

Experiment [3] deals with H3K27 methylation in G401 cell. The experiment in a line: ELISA (H3K27 methylation) assay in G401 cells. As to conditions: Homo sapiens, G-401, read-out: (c) IC50, ELISA Qualified. It counts as cell-based, human. In a few lines: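 G401 cells treated 48 h with 3-fold dilutions (8 or 12 points, top 20 μM). Acid-extracted histones probed by ELISA for H3K27me3 or H3K27me2 with ECL readout, normalized to total H3. Percent inhibition versus DMSO fitted to dose-response curve for IC50.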

wild type PRC2 (wtPRC2) complex, sequence (O75530 whole entry): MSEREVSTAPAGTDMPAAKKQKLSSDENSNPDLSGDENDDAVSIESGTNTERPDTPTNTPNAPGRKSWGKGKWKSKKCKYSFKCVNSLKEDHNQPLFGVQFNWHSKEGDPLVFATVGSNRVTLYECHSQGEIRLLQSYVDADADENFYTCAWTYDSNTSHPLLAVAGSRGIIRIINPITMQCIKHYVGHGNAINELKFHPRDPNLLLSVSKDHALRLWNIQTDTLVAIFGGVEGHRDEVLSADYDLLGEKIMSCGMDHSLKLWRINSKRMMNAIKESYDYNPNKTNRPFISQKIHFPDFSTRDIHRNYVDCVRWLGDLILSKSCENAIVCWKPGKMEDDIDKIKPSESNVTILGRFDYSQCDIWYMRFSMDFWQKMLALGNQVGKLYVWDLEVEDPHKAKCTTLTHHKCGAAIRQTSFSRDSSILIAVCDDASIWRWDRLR
wild type PRC2 (wtPRC2) complex, sequence (Q15910 whole entry partner): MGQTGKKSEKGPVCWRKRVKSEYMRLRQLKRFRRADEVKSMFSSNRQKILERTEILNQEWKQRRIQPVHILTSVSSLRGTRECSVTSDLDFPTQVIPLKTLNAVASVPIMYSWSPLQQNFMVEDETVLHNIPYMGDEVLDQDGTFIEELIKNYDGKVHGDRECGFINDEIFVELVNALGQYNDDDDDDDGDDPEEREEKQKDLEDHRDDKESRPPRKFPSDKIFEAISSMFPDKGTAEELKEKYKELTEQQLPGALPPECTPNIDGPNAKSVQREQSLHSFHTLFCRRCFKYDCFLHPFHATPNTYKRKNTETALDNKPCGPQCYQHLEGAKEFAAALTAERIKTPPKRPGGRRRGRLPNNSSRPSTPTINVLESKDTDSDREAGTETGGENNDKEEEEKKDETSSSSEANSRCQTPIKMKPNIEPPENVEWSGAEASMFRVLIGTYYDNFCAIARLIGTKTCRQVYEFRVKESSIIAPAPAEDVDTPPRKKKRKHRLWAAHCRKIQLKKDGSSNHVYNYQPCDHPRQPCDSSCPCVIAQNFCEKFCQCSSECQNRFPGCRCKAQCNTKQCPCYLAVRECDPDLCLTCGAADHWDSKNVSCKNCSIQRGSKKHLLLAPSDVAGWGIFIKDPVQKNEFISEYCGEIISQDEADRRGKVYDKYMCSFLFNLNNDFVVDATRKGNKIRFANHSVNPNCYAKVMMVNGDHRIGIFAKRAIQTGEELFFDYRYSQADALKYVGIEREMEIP
wild type PRC2 (wtPRC2) complex, sequence (Q15022 whole entry partner): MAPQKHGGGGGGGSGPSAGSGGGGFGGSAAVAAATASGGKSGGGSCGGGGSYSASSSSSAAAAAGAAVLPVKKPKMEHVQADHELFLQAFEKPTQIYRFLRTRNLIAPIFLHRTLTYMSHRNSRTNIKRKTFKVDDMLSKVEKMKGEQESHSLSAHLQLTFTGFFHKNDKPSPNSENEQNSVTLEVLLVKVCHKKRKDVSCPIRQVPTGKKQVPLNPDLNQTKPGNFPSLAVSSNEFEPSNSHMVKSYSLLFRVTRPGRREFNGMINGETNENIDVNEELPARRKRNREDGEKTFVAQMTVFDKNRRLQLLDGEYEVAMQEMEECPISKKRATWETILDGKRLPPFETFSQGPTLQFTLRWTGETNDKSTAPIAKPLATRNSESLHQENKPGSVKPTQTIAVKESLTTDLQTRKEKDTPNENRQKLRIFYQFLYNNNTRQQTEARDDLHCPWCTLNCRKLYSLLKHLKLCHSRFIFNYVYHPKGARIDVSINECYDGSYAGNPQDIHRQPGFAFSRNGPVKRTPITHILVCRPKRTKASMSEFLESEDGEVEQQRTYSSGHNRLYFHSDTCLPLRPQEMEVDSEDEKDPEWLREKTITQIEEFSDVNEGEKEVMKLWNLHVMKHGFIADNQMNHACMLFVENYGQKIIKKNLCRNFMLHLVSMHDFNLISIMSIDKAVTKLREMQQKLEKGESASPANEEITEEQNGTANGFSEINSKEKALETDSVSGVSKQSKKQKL
wild type PRC2 (wtPRC2) complex, sequence (Q09028 whole entry partner): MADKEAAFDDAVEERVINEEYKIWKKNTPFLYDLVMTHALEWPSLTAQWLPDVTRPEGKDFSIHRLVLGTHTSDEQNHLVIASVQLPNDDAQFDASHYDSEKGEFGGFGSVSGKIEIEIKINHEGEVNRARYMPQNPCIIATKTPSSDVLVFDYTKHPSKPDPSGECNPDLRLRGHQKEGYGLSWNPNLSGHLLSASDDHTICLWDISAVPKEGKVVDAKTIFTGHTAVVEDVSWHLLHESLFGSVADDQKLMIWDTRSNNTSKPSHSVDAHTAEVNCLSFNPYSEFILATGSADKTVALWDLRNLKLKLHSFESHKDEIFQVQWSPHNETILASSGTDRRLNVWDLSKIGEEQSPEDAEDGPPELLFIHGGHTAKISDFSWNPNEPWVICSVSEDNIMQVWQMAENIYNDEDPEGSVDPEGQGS
wild type PRC2 (wtPRC2) complex, sequence (Q6ZN18 whole entry partner): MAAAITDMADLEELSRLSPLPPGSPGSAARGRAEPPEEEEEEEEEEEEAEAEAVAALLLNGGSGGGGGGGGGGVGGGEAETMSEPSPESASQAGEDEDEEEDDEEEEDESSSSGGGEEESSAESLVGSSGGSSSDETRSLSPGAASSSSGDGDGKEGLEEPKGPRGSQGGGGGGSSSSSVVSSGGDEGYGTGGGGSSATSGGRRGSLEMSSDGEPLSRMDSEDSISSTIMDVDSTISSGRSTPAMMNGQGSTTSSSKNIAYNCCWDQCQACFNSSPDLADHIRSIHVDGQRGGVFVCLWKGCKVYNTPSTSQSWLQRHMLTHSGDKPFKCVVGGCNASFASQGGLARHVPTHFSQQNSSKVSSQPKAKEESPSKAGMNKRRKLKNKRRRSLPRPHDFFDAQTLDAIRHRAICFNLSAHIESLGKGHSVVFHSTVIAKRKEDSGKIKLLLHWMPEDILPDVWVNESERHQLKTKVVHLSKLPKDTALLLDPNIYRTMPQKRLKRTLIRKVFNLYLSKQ
T1 sequence (O75530 whole entry): as the sequence (O75530 whole entry) above

The term IC50 denotes the concentration needed to halve the response being measured. For `COc1cccc(F)c1CNc1ccc(-c2ccc(C(=O)N3CCCC3)cc2)c2nncn12` [Example 107, (4-(5-((2-fluoro-6-methoxy benzyl)amino)-[1,2,4]triazolo[4,3-a]pyridin-8-yl)phenyl)(pyrrolidin-1-yl) methanone], the IC50 in experiment [1] stood at 21.4 nM; in experiment [2], 108 nM; in experiment [3], 12.6 nM.
In the same order, the values of `COc1cccc(F)c1CNc1ccc(-c2cnc(N3CCN(C(C)C)CC3)c(C(F)(F)F)c2)c2nncn12` [Example 108, N-(2-fluoro-6-methoxybenzyl)-8-(6-(4-isopropylpiperazin-1-yl)-5-(trifluoromethyl)pyridin-3-yl)-[1,2,4]triazolo[4,3-a] pyridin-5-amine] are 70.8 nM, 350 nM and 191 nM.
In the same order, the values of `COc1cccc(F)c1CNc1ccc(-c2cnc(N3CCN(C(C)C)CC3)c(Cl)c2)c2nncn12` [Example 109, 8-(5-chloro-6-(4-isopropylpiperazin-1-yl)pyridin-3-yl)-N-(2-fluoro-6-methoxybenzyl)-[1,2,4] triazolo[4,3-a]pyridin-5-amine] are 27.1 nM, 299 nM and 103 nM.
For `COc1ccccc1CNc1ccc(-c2ccc(C)nc2)c2nncn12` [Example 111, N-(2-methoxybenzyl)-8-(6-methylpyridin-3-yl)-[1,2,4] triazolo[4,3-a]pyridin-5-amine], in that order: 76.5 nM, 405 nM and 56.7 nM.
With `COc1cccc(F)c1CNc1ccc(-c2ccc(S(C)(=O)=O)nc2)c2nncn12` [Example 112, N-(2-fluoro-6-methoxybenzyl)-8-(6-(methylsulfonyl)pyridin-3-yl)-[1,2,4]triazolo[4,3-a] pyridin-5-amine], the values for the IC50 in experiment [1], in experiment [2] and in experiment [3] were 9.8 nM, 256 nM and 4.9 nM, respectively.
As to `COc1cccc(F)c1CNc1ccc(-c2ccncc2)c2nncn12` [Example 113, N-(2-fluoro-6-methoxybenzyl)-8-(pyridin-4-yl)-[1,2,4]triazolo[4,3-a]pyridin-5-amine], the IC50 is 38.7 nM in experiment [1], 117 nM in experiment [2] and 27.4 nM in experiment [3].
In the same order, the values of `COc1cccc(F)c1CNc1ccc(-c2cccnc2)c2nncn12` [Example 114, N-(2-fluoro-6-methoxybenzyl)-8-(pyridin-3-yl)-[1,2,4]triazolo[4,3-a]pyridin-5-amine] are 16 nM, 90.6 nM and 9.5 nM.
For the molecule `COc1ccccc1CNc1ccc(-c2ccc(CCN(C)C)cc2)c2nncn12` [Example 123, 8-(4-(2-(dimethylamino)ethyl)phenyl)-N-(2-methoxybenzyl)-[1,2,4]triazolo[4,3-a] pyridin-5-amine], the figures for the IC50 in experiment [1], in experiment [2] and in experiment [3] were 42 nM, 368 nM and 99.4 nM, respectively.
Turning to `COc1cccc(F)c1CNc1ccc(-c2c(C)nn(C)c2C)c2nncn12` [Example 124, N-(2-fluoro-6-methoxybenzyl)-8-(1,3,5-trimethyl-1H-pyrazol-4-yl)-[1,2,4] triazolo[4,3-a]pyridin-5-amine], the IC50 was determined as 52.1 nM in experiment [1], 64.5 nM in experiment [2] and 24.7 nM in experiment [3].
For `COc1cccc(F)c1CNc1ccc(-c2ccc(S(=O)(=O)NCCO)cc2)c2nncn12` [Example 126, 4-(5-((2-fluoro-6-methoxybenzyl)amino)-[1,2,4]triazolo[4,3-a]pyridin-8-yl)-N-(2-hydroxyethyl) benzenesulfonamide], in that order: 11.5 nM, 1740 nM and 5 nM.
For `COc1ccccc1CNc1ccc(-c2ccc(S(=O)(=O)C(C)C)nc2)c2nncn12` [Example 127, 8-(6-(isopropylsulfonyl)pyridin-3-yl)-N-(2-methoxybenzyl)-[1,2,4]triazolo[4,3-a] pyridin-5-amine], in that order: 21.7 nM, 572 nM and 14.2 nM.
On to `COc1ccccc1CNc1ccc(-c2ccc(S(=O)(=O)C3CCN(C)CC3)cc2)c2nncn12` [Example 128, N-(2-methoxybenzyl)-8-(4-((1-methylpiperidin-4-yl)sulfonyl)phenyl)-[1,2,4] triazolo[4,3-a]pyridin-5-amine], for which the IC50 was 33.2 nM in experiment [1], 224 nM in experiment [2] and 18.5 nM in experiment [3].
Take `COc1cccc(F)c1CNc1ccc(-c2ccc(N3CCN(C(C)C)CC3)nc2)c2nncn12` [Example 130, N-(2-fluoro-6-methoxybenzyl)-8-(6-(4-isopropylpiperazin-1-yl)pyridin-3-yl)-[1,2,4]triazolo[4,3-a]pyridin-5-amine]: the values for the IC50 in experiment [1], in experiment [2] and in experiment [3] were 31.1 nM, 62.5 nM and 80.9 nM, respectively.
With `COc1cccc(F)c1CNc1ccc(-c2cnc(N3CCN(C(C)C)CC3)nc2)c2nncn12` [Example 131, N-(2-fluoro-6-methoxybenzyl)-8-(2-(4-isopropylpiperazin-1-yl)pyrimidin-5-yl)-[1,2,4]triazolo[4,3-a] pyridin-5-amine], the values for the half-maximal inhibitory concentration (IC50) in experiment [1], in experiment [2] and in experiment [3] were 32.2 nM, 181 nM and 81.2 nM, respectively.
Take `COc1cccc(F)c1CNc1ccc(-c2ccc(S(=O)(=O)C3CCNCC3)cc2)c2nncn12` [Example 132, N-(2-fluoro-6-methoxybenzyl)-8-(4-(piperidin-4-ylsulfonyl)phenyl)-[1,2,4] triazolo[4,3-a]pyridin-5-amine]: the values for the 50% inhibitory concentration (IC50) in experiment [1], in experiment [2] and in experiment [3] were 69.1 nM, 64.9 nM and 21.8 nM, respectively.
`COc1cccc(F)c1CNc1ccc(-c2ccc(S(=O)(=O)C3CCN(C)CC3)cc2)c2nncn12` [Example 133, N-(2-fluoro-6-methoxybenzyl)-8-(4-((1-methylpiperidin-4-yl)sulfonyl)phenyl)-[1,2,4]triazolo[4,3-a] pyridin-5-amine]: the IC50 in experiment [1] was 5 nM; in experiment [2] it was 65.8 nM; in experiment [3], 5.3 nM.
For `COc1cccc(F)c1CNc1ccc(-c2c(C)noc2C)c2nncn12` [Example 139, 8-(3,5-dimethylisoxazol-4-yl)-N-(2-fluoro-6-methoxybenzyl)-[1,2,4]triazolo[4,3-a] pyridin-5-amine], in that order: 26 nM, 46.5 nM and 11.7 nM.
On to `COc1cccc(F)c1CNc1ccc(-c2cncc(S(C)(=O)=O)c2)c2nncn12` [Example 140, N-(2-fluoro-6-methoxybenzyl)-8-(5-(methylsulfonyl)pyridin-3-yl)-[1,2,4]triazolo[4,3-a] pyridin-5-amine], for which the IC50 in experiment [1] turned out to be 17.5 nM; in experiment [2] it was 268 nM; in experiment [3], 18.8 nM.
In the same order, the values of `COc1cccc(F)c1CNc1ccc(-c2cccc(S(C)(=O)=O)c2)c2nncn12` [Example 142, N-(2-fluoro-6-methoxybenzyl)-8-(3-(methylsulfonyl)phenyl)-[1,2,4]triazolo[4,3-a]pyridin-5-amine] are 13.6 nM, 106 nM and 34.8 nM.
For `CCN1CCC(S(=O)(=O)c2ccc(-c3ccc(NCc4ccccc4OC)n4cnnc34)cn2)CC1` [Example 143, 8-(6-((1-ethylpiperidin-4-yl)sulfonyl)pyridin-3-yl)-N-(2-methoxybenzyl)-[1,2,4] triazolo[4,3-a]pyridin-5-amine], in that order: 31.1 nM, 323 nM and 53.2 nM.
In the same order, the values of `COc1cccc(F)c1CNc1ccc(-c2cncnc2)c2nncn12` [Example 147, N-(2-fluoro-6-methoxybenzyl)-8-(pyrimidin-5-yl)-[1,2,4]triazolo[4,3-a]pyridin-5-amine] are 77.4 nM, 60.8 nM and 42.5 nM.
On to `COc1cncc(-c2ccc(NCc3c(F)cccc3OC)n3cnnc23)c1` [Example 148, N-(2-fluoro-6-methoxybenzyl)-8-(5-methoxypyridin-3-yl)-[1,2,4] triazolo[4,3-a]pyridin-5-amine], for which the figures for the IC50 in experiment [1], in experiment [2] and in experiment [3] were 28.9 nM, 99.8 nM and 60.6 nM, respectively.
Consider `CCN1CCC(S(=O)(=O)c2ccc(-c3ccc(NCc4c(F)cccc4OC)n4cnnc34)cn2)CC1` [Example 149, 8-(6-((1-ethylpiperidin-4-yl)sulfonyl)pyridin-3-yl)-N-(2-fluoro-6-methoxybenzyl)-[1,2,4]triazolo[4,3-a]pyridin-5-amine], for which the figures for the IC50 in experiment [1], in experiment [2] and in experiment [3] were 18.2 nM, 27.1 nM and 14.9 nM, respectively.
As to `COc1cccc(F)c1CNc1ccc(-c2cnccc2C)c2nncn12` [Example 150, N-(2-fluoro-6-methoxybenzyl)-8-(4-methylpyridin-3-yl)-[1,2,4]triazolo[4,3-a] pyridin-5-amine], the results for the IC50 in experiment [1], in experiment [2] and in experiment [3] were 35.6 nM, 94.8 nM and 14.2 nM, respectively.
For `COc1cccc(F)c1CNc1ccc(-c2ccc(O)nc2)c2nncn12` [Example 151, 5-(5-((2-fluoro-6-methoxybenzyl)amino)-[1,2,4]triazolo[4,3-a]pyridin-8-yl) pyridin-2-ol], in that order: 66.4 nM, 676 nM and 80.3 nM.
